In patent publication US20160102074A1, “SUBSTITUTED AMIDE COMPOUNDS” (PFIZER INC., priority 2014, published 2016):
pIC50: −log10 of the molar value.

tested on: human PCSK9; experiment: Cell Free PCSK9 Assay (PCSK9-luciferase mRNA translation in HeLa lysate); format: biochemical; settings: PCSK9-luciferase RNA, 30° C. for 45 minutes, top concentration 100 μM
Protocol: As defined herein inhibition of translation of PCSK9 mRNA to PCSK9 protein is determined by the “Cell Free PCSK9 Assay” provided herein in the specification. This “Cell Free PCSK9 Assay” is specific to the production of PCSK9 protein from PCSK9 mRNA and therefore detects inhibitors of this translational process rather than other mechanisms by which PCSK9 protein may be reduced.
In order to eliminate the permeability barrier inherent to the WT7 cell-based assays a cell-free system was also established to assess compound activitiy. A sequence containing the full length human PCSK9 (NCBI reference identifier, NM_174936.3, where coding sequence start annotated at position 363) along with 84 additional 3′ nucleotides, comprising a V5 tag and polylinker followed by an in frame modified firefly luciferase reporter (corresponding to nucleotide positions 283-1929 of pGL3, GenBank reference identifier JN542721.1) was cloned into the pT7CFE1 expression vector (ThermoScientific). The construct was then in-vitro transcribed using the MEGAscript T7 Kit (Life Technologies) and RNA subsequently purified incorporating the MEGAclear Kit (Life Technologies) according to manufacturer's protocols. HeLa cell lysates were prepared following the protocols described by Mikami (reference is Cell-Free Protein Synthesis Systems with Extracts from Cultured Human Cells, S. Mikami, T. Kobayashi and H. Imataka; from Methods in Molecular Biology, vol. 607, pages 43-52, Y. Endo et al. (eds.), Humana Press, 2010) with the following modifications. Cells were grown in a 20 L volume of CD293 medium (Gibco 11765-054) with Glutamax increased to 4 mM, penicillin at 100 U/mL and other additions as previously described by Mikami. Growth was in a 50 L wavebag at a rocker speed of 25 rpm and angle 6.1 with 5% CO2 and 0.2 LPM flow rate with cells harvested at a density of 2-2.5e6/mL. Lysates additionally contained 1 tablet of Roche cOmplete-EDTA protease inhibitors per 50 mL with tris(2-carboxyethyl)phosphine (Biovectra) substituted for dithiothreitol, and were clarified by an additional final centrifugation at 10,000 rpm in a Sorvall SS34 rotor at 4° C. for 10 minutes. Compound screening was performed in 384-well plates in an eleven point, 0.5 log dilution format at a top test compound concentration of 100 μM in a final volume of 0.5% DMSO. In additional to these test compound conditions each screening plate also included wells that contained 100 μM of compound example 16 (as depicted in WO2014170786; N-(3-chloropyridin-2-yl)-N-[(3R)-piperidin-3-yl]-4-(3H-[1,2,3]triazolo[4,5-b]pyridin-3-yl)benzamide) as a positive assay control defined as high percent effect, HPE, as well as wells containing media in 0.5% DMSO as a negative treatment control defined as zero percent effect, ZPE. Compounds were incubated at 30° C. for 45 minutes in a solution containing 0.1 μg of purified, in-vitro transcribed RNA together with the cell-free reaction mixture (consisting of 1.6 mM Mg and 112 mM K salts, 4.6 mM tris(2-carboxyethyl)phosphine (Biovectra), 5.0 μL HeLa lysate, 0.2 μL RNAsin (Promega) and 1.0 μL energy mix (containing 1.25 mM ATP (Sigma), 0.12 mM GTP (Sigma), 20 mM creatine phosphate (Santa Cruz), 60 μg/mL creatine phosphokinase (Sigma), 90 μg/mL tRNA (Sigma) and the 20 amino acids (Life Technologies) at final concentrations described by Mikami) and brought up in water to a final volume of 10 μL in water. Upon assay completion 1 μL from each reaction solution was removed and transferred to a second 384-well Optiplate (Perkin Elmer) containing 24 μL of SteadyGlo (Promega) and signal intensity was measured on the Envision (Perkin Elmer) using the enhanced luminescence protocol. To determine compound IC50 the data for HPE and ZPE control wells were first analyzed and the mean, standard deviation and Z prime calculated for each plate. The test compound data were converted into percent effect, using the ZPE and HPE controls as 0% and 100% activity, respectively, applying Equation 1 above. […]

SMILES	pIC50
CCOC(=O)O[C@@H](C)n1nnnc1-c1c(-c2ccc(C(=O)N(c3ncccc3Cl)[C@@H]3CCCNC3)cc2F)cnn1C [Example 7, ethyl (S)-1-{5-[4-(4-{(3-chloropyridin-2-yl)[(3R)-piperidin-3-yl]carbamoyl}-2-fluorophenyl)-1-methyl-1H-pyrazol-5-yl]-1H-tetrazol-1-yl}ethyl carbonate]	4.87
CCOC(=O)O[C@@H](C)n1nnnc1-c1c(-c2ccc(C(=O)N(c3ncccc3C)[C@@H]3CCCNC3)nc2)cnn1C [Example 9, ethyl (S)-1-{5-[1-methyl-4-(6-{(3-methylpyridin-2-yl)[(3R)-piperidin-3-yl]carbamoyl}pyridin-3-yl)-1H-pyrazol-5-yl]-1H-tetrazol-1-yl}ethyl carbonate]	4.23
CCOC(=O)O[C@@H](C)n1nnnc1-c1c(-c2ccc(C(=O)N(c3ncccc3Cl)[C@@H]3CCCNC3)nc2)cnn1C [Example 10, ethyl (S)-1-{5-[4-(6-{(3-chloropyridin-2-yl)[(3R)-piperidin-3-yl]carbamoyl}pyridin-3-yl)-1-methyl-1H-pyrazol-5-yl]-1H-tetrazol-1-yl}ethyl carbonate]	< 4.13
CCOC(=O)O[C@@H](C)n1nnnc1-c1c(-c2ccc(C(=O)N(c3ncccc3Cl)[C@@H]3CCCNC3)cc2)cnn1C [Example 6, ethyl (S)-1-{5-[1-methyl-4-(4-{(3-chloropyridin-2-yl)[(3R)-piperidin-3-yl]carbamoyl}phenyl)-1H-pyrazol-5-yl]-1H-tetrazol-1-yl}ethyl carbonate]	4.99
Cn1ncc(-c2ccc(C(=O)N(c3ncccc3Cl)[C@@H]3CCCNC3)cc2F)c1-c1nn[nH]n1 [Example 3, N-(3-chloropyridin-2-yl)-3-fluoro-4-[1-methyl-5-(2H-tetrazol-5-yl)-1H-pyrazol-4-yl]-N-[(3R)-piperidin-3-yl]benzamide]	5.55
CCOC(=O)O[C@@H](C)n1nnnc1-c1c(-c2ccc(C(=O)N(c3ncccc3C)[C@@H]3CCCNC3)cc2F)cnn1C [Example 8, ethyl (S)-1-{5-[4-(4-{(3-methylpyridin-2-yl)[(3R)-piperidin-3-yl]carbamoyl}-2-fluorophenyl)-1-methyl-1H-pyrazol-5-yl]-1H-tetrazol-1-yl}ethyl carbonate]	4.96

Continued, values first:

pIC50	SMILES
5.19	CCOC(=O)O[C@H](C)n1nnnc1-c1c(-c2ccc(C(=O)N(c3ncccc3C)[C@@H]3CCCNC3)cc2)cnn1C [Example 5b, ethyl (R)-1-{5-[1-methyl-4-(4-{(3-methylpyridin-2-yl)[(3R)-piperidin-3-yl]carbamoyl}phenyl)-1H-pyrazol-5-yl]-1H-tetrazol-1-yl}ethyl carbonate]
5.09	CCOC(=O)O[C@@H](C)n1nnnc1-c1c(-c2ccc(C(=O)N(c3ncccc3C)[C@@H]3CCCNC3)cc2)cnn1C [Example 5a, ethyl (S)-1-{5-[1-methyl-4-(4-{(3-methylpyridin-2-yl)[(3R)-piperidin-3-yl]carbamoyl}phenyl)-1H-pyrazol-5-yl]-1H-tetrazol-1-yl}ethyl carbonate]
